From patent US4843158A, “[2,2,1]Cryptand compounds that selectively bind sodium” (priority 1985, dated 1989)

How the values were obtained:
[1] = Cation binding titration, sodium (fluorescence and 19F NMR titrations); details: for Cation Binding Constant (log k), Na+: 37° C.
Experimental: (§1) Fluorescence titrations: Ionic titrations of chelator fluorescence were performed on a Perkin Elmer 44E spectrofluorometer at a chelator concentration of 10 μM in 100 mM tris/acetic acid buffer at 37° C. Fluorescence emission from all of the chelators was monitored at a constant wavelength between 370 and 390 nm. The excitation spectra from 210 to 350 nm were recorded in the ratio mode and the proportion of M^n+ chelator complex was calculated from the fluorescence intensities at the most sensitive excitation wavelengths. The binding constants were estimated graphically from plots of log (bound/free) chelator against log free [M^n+ ]. (Slopes were 1.00±<0.05).
(§2) NMR titrations: Nmr spectra were recorded on Bruker WH 200 or Am 400 spectrometers at 188 or 376 MHz respectively at chelator concentrations between 5 and 10 mM in the same buffer as for fluorescence titrations but containing 20% D2 O at 37° C. The spectra were obtained with an acquisition time of 1.0 sec. and a 90° pulse and were processed with resolution enhancement (-0.5 of the observed line width) and appropriate gaussian sensitivity enhancement. The proportion of M^n+ -chelator complex was calculated from the integrals of the resolved free and bound chelator ^19 F resonances, or from the chemical shift of complexes in fast exchange. The apparent affinities were determined graphically as for the fluorescence data, but using a two step iteration from the affinity derived from the fluorescence data when the dissociation constant was close to the chelator concentration in the nmr titrations.

[2] = Cation binding titration, potassium (fluorescence and 19F NMR titrations); details: 37° C.; from NMR
Experimental: as §1
as §2, with “The spectra were obtained with an acquisition time of 1.0 sec. and a 90° pulse and were processed with resolution enhancement (-0.5 of the observed line width) and appropriate gaussian sensitivity enhancement.” left out

[3] = Cation induced 19F NMR chemical shift, sodium; assay type: binding; design: key: fast exchange; slow exchange; details: 37° C.
Experimental: as §2

[4] = Cation induced 19F NMR chemical shift, potassium; assay type: binding; design: key: fast exchange; slow exchange; details: 37° C.
Experimental: as §2

[5] = assay type: binding; details: tris/acetic acid buffer
Experimental: as §1

[6] = Selectivity for sodium ions over potassium (and other) ions; assay type: binding
Lymphocytes = experiment: Intracellular sodium by 19F NMR in pig mesenteric lymph node lymphocytes; assay type: cell-based
Experimental: (§3) Lymphocytes (1 ml packed cells) were prepared from pig mesenteric lymphnodes by standard procedure in RPM1 medium. The cells suspended in RPM1 (200 ml) were treated with the tetra-acetoxymethyl ester of Example 3 (4.5 mg) in DMSO (100 μl) and incubated at 37° C. for 1 hour. The cells were isolated by centrifugation and suspended in RPM1 (20 ml) in the spectrometer probe, with continuous dialysis against oxygenated medium and the data collected. The signal appeared after 3 hours and was collected for a further 3 hours.

cellular function = assay type: cell-based
Experimental: as §3

O=C(O)CN(CC(=O)O)c1ccc2c(c1)OCCN1CCOCCN(CCO2)c2ccc(F)cc2OCCOc2cc(F)ccc21 [Compound 7a]
Cation Binding Constant (log k), Na+ ([1]; from NMR): 6 | Cation Binding Constant (log k), K+ [2]: 2.3 | Exchange (fast/slow), Na+ [3]: s | Exchange (fast/slow), K+ [4]: f

CC(=O)c1cc2c(cc1N(CC(=O)O)CC(=O)O)OCCN1CCN(c3cccc(N(CC(=O)O)CC(=O)O)c3)CCN(CCO2)c2ccc(F)cc2OCCOc2cc(F)ccc21 [Compound 8d]
Cation Binding Constant (log k), Na+ ([1]; from NMR): 1.3 | Exchange (fast/slow), Na+ [3]: f

O=C(O)CN(CC(=O)O)c1cccc(N2CCN3CCOc4ccc(N(CC(=O)O)CC(=O)O)cc4OCCN(CC2)c2ccc(F)cc2OCCOc2cc(F)ccc23)c1 [Compound 7d]
Cation Binding Constant (log k), Na+ ([1]; from NMR and from fluorescence at 370 nm): 1.6 | Cation Binding Constant (log k), H+ [5]: 7.0 | Exchange (fast/slow), Na+ [3]: f

CC(=O)OCOC(=O)CN(CC(=O)OCOC(C)=O)c1cccc(N2CCN3CCOc4cc(C(C)=O)c(N(CC(=O)OCOC(C)=O)CC(=O)OCOC(C)=O)cc4OCCN(CC2)c2ccc(F)cc2OCCOc2cc(F)ccc23)c1 [Example 3]
Kd ([1]; read-out: dissociation constant of the sodium complex): 40 mM | selectivity for sodium ions (in words) [6]: high selectivity for sodium over all other ions and in particular over potassium | 19F chemical shift downfield from the standard (Lymphocytes; 37° C., standard 1,2-bis (2-amino-5-fluorophenoxy) ethane-N,N,N',N'-tetracetic acid): 5.99 ppm | intracellular sodium ion concentration indicated (Lymphocytes; from 19F chemical shift): about 13 mM | adverse effect on cellular function (cellular function): has not shown any adverse effect on cellular function
